The target of assay [1] is T1, Plasmodium falciparum calcium-dependent protein kinase 1 (CDPK1) (Plasmodium falciparum, UniProt P62344).
T1 construct: 6-Histidine (N); made in house
Nature of the assay: CDPK1 Kinase-Glo ATP-consumption screen and dose-response. The conditions noted are these: hits below 1 uM; read-out: CDPK1 IC50. Format: biochemical. As for the experimental part: Biochemical assays were performed in white 384-well plates (Nunc). Liquid transfers were done manually with 8-channel pipets. Compounds were initially tested in a single-point screen (final concentration 1 μM). […] The catalytic activity of each kinase was considered proportional to ATP consumed, as determined from measurements of residual [ATP] with the luciferase-based reagent Kinase-Glo (Promega) following incubation. Luminescence (proportional to residual [ATP]) was measured on the plate readers FLx800 (BioTek Instruments, Winooski, VT, USA) and MicroBeta^2 (PerkinElmer, Waltham, MA, USA). Incubation times were chosen to ensure near-complete ATP depletion in the absence of inhibition, thus maximizing the difference in signal between inhibited and uninhibited wells.
40 μM Syntide-2 was used as a substrate; BKI-1 [14] was used as a control inhibitor, while reaction mixtures lacking Syntide-2 were included as an additional negative control. Incubation time was 90 minutes. Reactions were terminated by adding excess EGTA (5 mM), which sequesters Ca^2+ and halts calcium-dependent kinase activity.

In the next assay the test system is HepG2 cells. Conditions: HepG2; downloaded from ChEMBL; ref F.J. Gamo et al., Nature 2010; cited from earlier work.
The next assay concerns P. falciparum 3D7 cells. Conditions: 3D7; downloaded from ChEMBL; ref F.J. Gamo et al., Nature 2010; cited from earlier work.
The subject of the next assay is DD2. More on the design: method as in F.J. Gamo et al., Nature 2010. The conditions noted are these: downloaded from ChEMBL, ref F.J. Gamo et al., Nature 2010; cited from earlier work.
For another assay, the system named is 3D7 PFLDH. Further details: method as in F.J. Gamo et al., Nature 2010; concentration or dose not given beside the values. Conditions: downloaded from ChEMBL, ref F.J. Gamo et al., Nature 2010; cited from earlier work.

The text below walks through data of paper PMC4774911, “Biochemical Screening of Five Protein Kinases from Plasmodium falciparum against 14,000 Cell-Active Compounds” (PLoS ONE, 2016).

As a reminder, the IC50 is the midpoint of a concentration-inhibition curve.

T1 sequence (P62344 whole entry): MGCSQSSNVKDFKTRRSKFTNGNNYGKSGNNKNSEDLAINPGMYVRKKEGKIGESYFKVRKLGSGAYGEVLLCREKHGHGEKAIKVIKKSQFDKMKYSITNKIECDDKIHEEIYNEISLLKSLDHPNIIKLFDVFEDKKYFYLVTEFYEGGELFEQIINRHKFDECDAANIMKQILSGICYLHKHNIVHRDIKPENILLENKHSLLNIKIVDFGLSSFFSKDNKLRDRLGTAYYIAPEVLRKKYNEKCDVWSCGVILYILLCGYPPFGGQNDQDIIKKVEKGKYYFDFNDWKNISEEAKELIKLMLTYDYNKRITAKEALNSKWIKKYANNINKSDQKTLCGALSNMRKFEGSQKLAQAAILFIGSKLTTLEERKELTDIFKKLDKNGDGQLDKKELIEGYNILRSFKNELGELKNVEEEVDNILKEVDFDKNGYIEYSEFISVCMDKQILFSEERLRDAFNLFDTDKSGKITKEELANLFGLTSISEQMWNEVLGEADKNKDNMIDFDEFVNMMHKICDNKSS

Consider `CNC(=O)c1ccccc1Nc1nc(Nc2ccc(C(=O)O)cc2)ncc1Cl.Cl` [TCMDC-133803], for which the half-inhibitory concentration (IC50) in assay [1] came to 246 nM. In the assay with HepG2 cells, the PCT_INHIB_HEPG2 is 60%. In addition, in the assay on P. falciparum 3D7 cells, the PCT_IHB_3D7 is on record as 92% and the pXC50_3D7 is 6.022. For the same molecule, in the assay on DD2, the PCT_INHB_DD2 is 92%. Moreover, in the assay with 3D7 PFLDH, the PCT_INHIB_3D7_PFLDH is reported as 0%.

For `CCn1c(-c2nonc2N)nc2c(-c3ccc(CO)o3)ncc(OCCCN)c21.O=C(O)C(F)(F)F` [TCMDC-133807], the concentration for half-maximal inhibition (IC50) in assay [1] was 51 nM. For the same molecule, in the assay with HepG2 cells, the PCT_INHIB_HEPG2 is 0%. In addition, in the assay with P. falciparum 3D7 cells, the PCT_IHB_3D7 is given as 93% and the pXC50_3D7 is recorded as 5.866. Further, the PCT_INHB_DD2 in the assay with DD2 is given as 97%. Also, the PCT_INHIB_3D7_PFLDH in the assay with 3D7 PFLDH is 0%.

Regarding `CN1CCN(c2ccc(Nc3ncc(Cl)c(Nc4cccnc4C(N)=O)n3)cc2)CC1.Cl` [TCMDC-134164], the half-maximal inhibitory concentration (IC50) in assay [1] worked out at 12 nM. For the same molecule, the PCT_INHIB_HEPG2 in the assay on HepG2 cells is recorded as 99%. In the assay on P. falciparum 3D7 cells, the PCT_IHB_3D7 is recorded as 95% and the pXC50_3D7 is on record as 6.816. Also, in the assay with DD2, the PCT_INHB_DD2 is on record as 97%. The PCT_INHIB_3D7_PFLDH with 3D7 PFLDH is recorded as 0%.

`NC(=O)c1ccccc1Nc1nc(Nc2cc[nH]n2)ncc1Cl` [TCMDC-134169]: the IC50 in assay [1] turned out to be 186 nM. Moreover, the PCT_INHIB_HEPG2 in the assay on HepG2 cells is given as 67%. Besides, in the assay on P. falciparum 3D7 cells, the PCT_IHB_3D7 is 96% and the pXC50_3D7 was 6.019. Also, in the assay on DD2, the PCT_INHB_DD2 was 93%. The PCT_INHIB_3D7_PFLDH with 3D7 PFLDH is recorded as 0%.

`O=C(O)C(F)(F)F.O=c1[nH]ccc2nc(N[C@@H]3CCNC3)nc(Nc3ccc4c(c3)S(=O)(=O)CC4)c12` [TCMDC-135044]: the IC50 in assay [1] is 235 nM. The PCT_INHIB_HEPG2 in the assay with HepG2 cells is 0%. For the same molecule, in the assay on P. falciparum 3D7 cells, the PCT_IHB_3D7 is on record as 100% and the pXC50_3D7 is 6.4233. Also, in the assay on DD2, the PCT_INHB_DD2 was 99%. Further, the PCT_INHIB_3D7_PFLDH in the assay with 3D7 PFLDH is reported as 0%.

As for `CCOC(=O)c1cccc(NC(=O)Nc2cccc(-c3ncc(OCCCN)c4c3nc(-c3nonc3N)n4CC)c2)c1.O=C(O)C(F)(F)F` [TCMDC-136205], the IC50 in assay [1] is 294 nM. Besides, the PCT_INHIB_HEPG2 in the assay with HepG2 cells is listed as 16%. Besides, in the assay with P. falciparum 3D7 cells, the PCT_IHB_3D7 is recorded as 100% and the pXC50_3D7 is given as 6.0485. Also, the PCT_INHB_DD2 in the assay on DD2 is listed as 98%. The PCT_INHIB_3D7_PFLDH in the assay with 3D7 PFLDH is recorded as 2%.

For the molecule `Cl.c1ccc(Oc2ccc(Nc3ccnc(Nc4ccc5cn[nH]c5c4)n3)cc2)cc1` [TCMDC-138574], the IC50 in assay [1] is 765 nM. Further, the PCT_INHIB_HEPG2 with HepG2 cells is on record as 6%. Moreover, in the assay with P. falciparum 3D7 cells, the PCT_IHB_3D7 is 94% and the pXC50_3D7 is given as 6.135. Also, in the assay with DD2, the PCT_INHB_DD2 is recorded as 33%. The PCT_INHIB_3D7_PFLDH in the assay on 3D7 PFLDH is given as 0%.

With `Cl.N#CCc1ccc(Nc2nccc(Nc3ccc(Oc4ccccc4)cc3)n2)cc1` [TCMDC-138577], the 50% inhibitory concentration (IC50) in assay [1] was found to be 798 nM. Further, the PCT_INHIB_HEPG2 in the assay with HepG2 cells is 0%. Also, in the assay on P. falciparum 3D7 cells, the PCT_IHB_3D7 was 98% and the pXC50_3D7 was 6.094. Further, the PCT_INHB_DD2 with DD2 is on record as 47%. For the same molecule, the PCT_INHIB_3D7_PFLDH in the assay with 3D7 PFLDH is reported as 6%.

`Cl.c1ccc(Oc2ccc(Nc3ccnc(Nc4ccc(OCCN5CCCCC5)cc4)n3)cc2)cc1` [TCMDC-138583]: the IC50 in assay [1] amounted to 701 nM. In addition, the PCT_INHIB_HEPG2 in the assay on HepG2 cells is listed as 23%. Further, in the assay on P. falciparum 3D7 cells, the PCT_IHB_3D7 is 97% and the pXC50_3D7 was 6.219. In addition, the PCT_INHB_DD2 in the assay with DD2 is 66%. The PCT_INHIB_3D7_PFLDH in the assay with 3D7 PFLDH is given as 0%.

In the case of `CC(=O)Nc1cccc(Nc2nccc(Nc3ccc(Oc4ccccc4)cc3)n2)c1.Cl` [TCMDC-138590], the IC50 in assay [1] was 425 nM. The PCT_INHIB_HEPG2 in the assay on HepG2 cells is 15%. In addition, in the assay with P. falciparum 3D7 cells, the PCT_IHB_3D7 is reported as 100% and the pXC50_3D7 was 6.128. The PCT_INHB_DD2 with DD2 is 99%. The PCT_INHIB_3D7_PFLDH in the assay with 3D7 PFLDH is on record as 0%.

In the case of `O=C(NCCN1CCCC1)c1cccc(Nc2nccc(Nc3ccc(Oc4ccccc4)cc3)n2)c1` [TCMDC-138602], the IC50 in assay [1] amounted to 213 nM. Moreover, the PCT_INHIB_HEPG2 in the assay with HepG2 cells is reported as 33%. Besides, in the assay with P. falciparum 3D7 cells, the PCT_IHB_3D7 is recorded as 100% and the pXC50_3D7 is reported as 6.184. In the assay on DD2, the PCT_INHB_DD2 is 18%. In the assay with 3D7 PFLDH, the PCT_INHIB_3D7_PFLDH is recorded as 0%.

In the case of `O=C(NCCN1CCCCC1)c1cccc(Nc2nccc(Nc3ccc(Oc4ccccc4)cc3)n2)c1` [TCMDC-138603], the 50% inhibitory concentration (IC50) in assay [1] came out at 250 nM. Also, the PCT_INHIB_HEPG2 in the assay with HepG2 cells is 50%. Further, in the assay on P. falciparum 3D7 cells, the PCT_IHB_3D7 is 99% and the pXC50_3D7 was 6.563. The PCT_INHB_DD2 in the assay with DD2 was 86%. Also, in the assay with 3D7 PFLDH, the PCT_INHIB_3D7_PFLDH is 0%.

For `O=C(NCCCN1CCOCC1)c1cccc(Nc2nccc(Nc3ccc(Oc4ccccc4)cc3)n2)c1` [TCMDC-138604], the IC50 in assay [1] turned out to be 180 nM. Besides, the PCT_INHIB_HEPG2 with HepG2 cells is reported as 34%. Also, in the assay with P. falciparum 3D7 cells, the PCT_IHB_3D7 is 98% and the pXC50_3D7 is given as 6.116. For the same molecule, in the assay on DD2, the PCT_INHB_DD2 is recorded as 22%. In the assay with 3D7 PFLDH, the PCT_INHIB_3D7_PFLDH is listed as 0%.

For the molecule `O=C(NCCCN1CCCCC1)c1cccc(Nc2nccc(Nc3ccc(Oc4ccccc4)cc3)n2)c1` [TCMDC-138605], the half-maximal inhibitory concentration (IC50) in assay [1] came out at 243 nM. The PCT_INHIB_HEPG2 in the assay with HepG2 cells is 47%. Besides, in the assay with P. falciparum 3D7 cells, the PCT_IHB_3D7 is 96% and the pXC50_3D7 is on record as 6.086. In addition, in the assay on DD2, the PCT_INHB_DD2 was 12%. The PCT_INHIB_3D7_PFLDH with 3D7 PFLDH was 2%.

For `CCCN1CCN(CCNC(=O)c2cccc(Nc3nccc(Nc4ccc(Oc5ccccc5)cc4)n3)c2)CC1` [TCMDC-138606], the IC50 in assay [1] amounted to 336 nM. Also, in the assay with HepG2 cells, the PCT_INHIB_HEPG2 is 56%. Besides, in the assay with P. falciparum 3D7 cells, the PCT_IHB_3D7 is 99% and the pXC50_3D7 is on record as 6.622. For the same molecule, the PCT_INHB_DD2 in the assay on DD2 is 96%. Besides, the PCT_INHIB_3D7_PFLDH with 3D7 PFLDH is 0%.

With `O=C(NCCN1CCC(c2ccncc2)CC1)c1cccc(Nc2nccc(Nc3ccc(Oc4ccccc4)cc3)n2)c1` [TCMDC-138607], the 50% inhibitory concentration (IC50) in assay [1] stood at 220 nM. For the same molecule, the PCT_INHIB_HEPG2 in the assay on HepG2 cells is 60%. In addition, in the assay on P. falciparum 3D7 cells, the PCT_IHB_3D7 is 100% and the pXC50_3D7 is 6.773. The PCT_INHB_DD2 in the assay on DD2 is given as 91%. Besides, in the assay with 3D7 PFLDH, the PCT_INHIB_3D7_PFLDH was 0%.

As for `O=C(NCCN1CCCCC1)c1ccc(Nc2nccc(Nc3ccc(Oc4ccccc4)cc3)n2)cc1` [TCMDC-138608], the IC50 in assay [1] was 103 nM. In addition, the PCT_INHIB_HEPG2 in the assay on HepG2 cells is on record as 58%. Besides, in the assay on P. falciparum 3D7 cells, the PCT_IHB_3D7 is listed as 100% and the pXC50_3D7 is recorded as 6.257. In addition, the PCT_INHB_DD2 in the assay with DD2 is listed as 91%. Also, the PCT_INHIB_3D7_PFLDH in the assay with 3D7 PFLDH is 0%.

As for `O=C(NCCCN1CCCCC1)c1ccc(Nc2nccc(Nc3ccc(Oc4ccccc4)cc3)n2)cc1` [TCMDC-138609], in assay [1], the IC50 came to 94 nM. Further, in the assay with HepG2 cells, the PCT_INHIB_HEPG2 is recorded as 30%. In addition, in the assay on P. falciparum 3D7 cells, the PCT_IHB_3D7 was 100% and the pXC50_3D7 is reported as 6.204. Further, the PCT_INHB_DD2 in the assay with DD2 was 61%. Moreover, the PCT_INHIB_3D7_PFLDH in the assay with 3D7 PFLDH was 0%.

`O=C(NCCN1CCC(c2ccncc2)CC1)c1ccc(Nc2nccc(Nc3ccc(Oc4ccccc4)cc3)n2)cc1` [TCMDC-138610]: in assay [1], the IC50 amounted to 135 nM. Moreover, the PCT_INHIB_HEPG2 in the assay with HepG2 cells is listed as 17%. Further, in the assay on P. falciparum 3D7 cells, the PCT_IHB_3D7 is on record as 100% and the pXC50_3D7 is given as 6.14. Moreover, the PCT_INHB_DD2 in the assay on DD2 is 90%. Besides, in the assay on 3D7 PFLDH, the PCT_INHIB_3D7_PFLDH is on record as 1%.

Take `CN1CCN(Cc2cccc(Nc3nccc(Nc4ccc(Oc5ccccc5)cc4)n3)c2)CC1` [TCMDC-138614]: in assay [1], the IC50 was found to be 801 nM. The PCT_INHIB_HEPG2 in the assay on HepG2 cells is given as 30%. For the same molecule, in the assay with P. falciparum 3D7 cells, the PCT_IHB_3D7 is 97% and the pXC50_3D7 was 6.529. The PCT_INHB_DD2 with DD2 is 80%. In addition, the PCT_INHIB_3D7_PFLDH in the assay with 3D7 PFLDH is 2%.
